Reference: publication PMC10425210 (The Journal of Clinical Investigation, 2023)
Several values for one entry are separate records, joined by “and”; a condition that tells them apart may be missing. Equal entries are not always repeated. Where two headings read alike, the source gives them in different places.

Assays:
HIV-1 [1] = assay: Antiviral assay against HIV-1 in MT-4 cells; type: cell-based; details: HIV-1IIIb in MT-4 cells
HIV-1 [2] = test system: HIV-1; parameters: method as in ref 11, 12 = [11]; PMID 32612233; doi:10.1038/s41586-020-2443-1; 11 Link JO et al Clinical targeting of HIV capsid protein with a long-acting small molecule Nature 2020 584 7822 614 618 10.1038/s41586-020-2443-1 32612233 PMC8188729 || [12]; 12 Yant SR, et al. GS-6207, A potent and selective first-in-class long-acting HIV-1 capsid inhibitor. Conference on Retroviruses and Opportunistic Infections. https://www.croiconference.org/abstract/g; details: HIV-1 in MT-4 cells; cited from earlier work
[3] = cited from earlier work
HIV-1 [4] = test system: HIV-1; parameters: method as in ref 11 = [11]; PMID 32612233; doi:10.1038/s41586-020-2443-1; 11 Link JO et al Clinical targeting of HIV capsid protein with a long-acting small molecule Nature 2020 584 7822 614 618 10.1038/s41586-020-2443-1 32612233 PMC8188729; details: cited from earlier work
HIV-1 [5] = assay: Antiviral assay in human PBMCs infected with HIV-1 clinical isolates; type: cell-based; details: HIV-1, human PBMCs; EC95 x human plasma shift
[6] = through week 52 of treatment across clinical studies; cited from earlier work
[7] = 927 mg sc twice-yearly after 600 mg oral on days 1 and 2

SMILES: CC(C)(C#Cc1ccc(-c2ccc(Cl)c3c(NS(C)(=O)=O)nn(CC(F)(F)F)c23)c([C@H](Cc2cc(F)cc(F)c2)NC(=O)Cn2nc(C(F)(F)F)c3c2C(F)(F)[C@@H]2C[C@H]32)n1)S(C)(=O)=O [LEN, Lenacapavir]
- Hill coefficient (n) (HIV-1 [1]): 3.51 ± 0.31
- EC50 (HIV-1 [2]): 100 pM
- time to reach efficacious target concentration after injection ([3]; 927 mg sc after oral lead-in): ≤ 2 h
- efficacious target plasma concentration [3, 7]: 15.5 ng/mL
- efficacious target plasma concentration (human target Ctrough) [3, 7]: 16 nM
- EC50 (HIV-1 [4]; 23 HIV-1 clinical isolates, mitogen-activated human PBMCs, 7-day assay): 50 ± 30 pM
- EC95 (HIV-1 [4]; 23 HIV-1 isolates, human PBMCs): 120 pM and 120 ± 70 pM
- paEC95 (protein-adjusted EC95) (HIV-1 [5]): 2010 pM and 2010 ± 1220 pM
- serious adverse events or laboratory abnormalities [6]: no serious adverse events or laboratory abnormalities related to LEN
